These are literature values, as cited in US20190358240A1, “HIV TREATMENT FORMULATION OF ATAZANAVIR AND COBICISTAT” (BRISTOL-MYERS SQUIBB COMPANY, priority 2013, published 2019).

As a reminder, the Tmax is the time from dosing to the highest level.

The conditions of this series: human, in vivo.

`COC(=O)N[C@H](C(=O)N[C@@H](Cc1ccccc1)[C@@H](O)CN(Cc1ccc(-c2ccccn2)cc1)NC(=O)[C@@H](NC(=O)OC)C(C)(C)C)C(C)(C)C` [Atazanavir, methyl N-[(1S)-1-{[(2S,3S)-3-hydroxy-4-[(2S)-2-[(methoxycarbonyl)amino]-3,3-dimethyl-N′-{[4-(pyridin-2-yl)phenyl]methyl}butanehydrazido]-1-phenylbutan-2-yl]carbamoyl}-2,2-dimethylpropyl]carbamate]: the “Accumulation at steady state” value is reported as 2-3 fold, the “Time to steady state” value is 4 to 8 days and the Tmax is approximately 2.5 h.
